Reference: patent US20200038355A1, “ANTIOXIDANTS FOR USE IN OPHTHALMIC SURGERY” (Case Western Reserve University, priority 2017, published 2020)
“Also recorded” adds a separate entry of the source. Structures can show the parent of a compound that is named as a salt.

Assays:
Assay type in all cases: cell-based
[1] = test system: mouse lens ex vivo culture; experiment: Mouse whole lens ex vivo culture, lens capsule immunoblot
Experimental: The isolated intact lens was rinsed three times with HBSS and then cultured in 12-well-plates with serum-free Medium 199 (ThermoFisher) with 50 unit/ml penicillin streptomycin at 37° C. in 5% CO2 incubator, as described above. The lens explant was cultured following the same procedure as described by a previous report. […] et al., Exp Eye Res 71, 591-597 (2000). In brief, the mouse lens was placed in an anterior-toposterior orientation with the anterior attached to the culture dish. The lens posterior capsule was torn/cut by the tip of extra-fine forceps and then peeled towards anterior capsule and pinned on the plastic culture dish. The lens fiber mass was removed thereafter. The explant was cultured in serum-free MEM medium supplied with 50 unit/ml penicillin streptomycin at 37° C. in 5% CO2 incubator as described above. Only healthy growing explants were used for the described study and any unhealthy looking explants, such as folded explants or those with cell detachment, were discarded. Cells were placed 24 hr before the treatment and fresh medium was replaced immediately before the treatment. The indicated concentrations of BSO, DMF, NAC, GSH-EE or TGFβ2 were added to fresh medium and incubated at various time intervals as indicated. After treatment time, the cells were harvested after three washes with ice-cold PBS and subjected to immunoblot or other assays as described below. For whole lens culture, the serum-free medium with or without BSO, NAC, GSH-EE or TGFβ2 was incubated immediately after isolation for 48 hr and the whole lens or lens capsule was collected for further analysis. For lens explant culture, 48 hr after explant culture, various stimulates were used in fresh serum-free medium for an additional 48 hr, and the explant was fixed with 10% formaldehyde for 10 min before immunofluorescence stain, as described below. The cells, whole lens, lens capsule, and lens fibers were collected and lysed in lysis buffer containing 20 mM Tris pH 7.5, 1 mM EDTA, 1 mM EGTA, 150 mM NaCl, 1% Triton X-100, 2.5 mM sodium pyrophosphate, 1 mM bα-Glycerolphosphate, 1 mM Na3VO4, 1 mg/ml Leupeptin, 1 mM PMSF on ice for 10 min. The protein concentration from the supernatant was determined by protein BCA assay (ThermoFisher). The protein extract was further processed for immunoblot analysis and probed for αSMA, collagen I, vimentin, phosphorylated Smad2, phosphorylated Smad3, phosphorylated GSK-3β and (β-catenin. All data were normalized to the level of GAPDH.

HLE-B3 cells = experiment: EMT marker / Wnt-β-catenin immunoblot in human lens epithelial cell line HLE-B3; settings: for type I collagen expression / vimentin expression: 24 h challenge, 25 μM DMF or both
Experimental: (§1) Cell Culture—Human lens epithelial cells (HLE-B3) were grown in DMEM medium with 10% fetal bovine serum (FBS), 2 mM glutamine and 50 unit/ml penicillin streptomycin (ThermoFisher, Waltham, Mass.) at 37° C. in a humidified 5% CO2 incubator. For primary porcine lens epithelial cell culture, pig eyes were collected at a local slaughterhouse within two hours of postmortem time, placed on ice and transported to the lab (about 1 hr) for immediate processing. First, the isolated lens was incubated with 2 ml of 0.25% trypsin at 37° C. for 2 min to remove any attached non-lens cells. Then, after a brief rinse with HBSS, the lens capsule was isolated and rinsed three times with HBSS before incubation with 2 ml of 0.5% trypsin for 5 min. 5 ml of complete DMEM medium was added and tissue was disrupted by pipetting up and down 10-15 times with a pipette fitted with a 1000 μl tip. The tissue homogenate was then passed through a 100 μm cell strainer. The cells were collected by low speed centrifugation at 150×g and placed in a 35 mm laminin-coated tissue culture dish with DMEM medium supplied with 10% FBS, 2 mM glutamine and 50 unit/ml penicillin streptomycin (ThernoFisher). The cells were cultured at 37° C. in a humidified incubator with 5% CO2.
(§2) Cells were placed 24 hr before the treatment and fresh medium was replaced immediately before the treatment. The indicated concentrations of BSO, DMF, NAC, GSH-EE or TGFβ2 were added to fresh medium and incubated at various time intervals as indicated. After treatment time, the cells were harvested after three washes with ice-cold PBS and subjected to immunoblot or other assays as described below. For whole lens culture, the serum-free medium with or without BSO, NAC, GSH-EE or TGFβ2 was incubated immediately after isolation for 48 hr and the whole lens or lens capsule was collected for further analysis. For lens explant culture, 48 hr after explant culture, various stimulates were used in fresh serum-free medium for an additional 48 hr, and the explant was fixed with 10% formaldehyde for 10 min before immunofluorescence stain, as described below.
The cells, whole lens, lens capsule, and lens fibers were collected and lysed in lysis buffer containing 20 mM Tris pH 7.5, 1 mM EDTA, 1 mM EGTA, 150 mM NaCl, 1% Triton X-100, 2.5 mM sodium pyrophosphate, 1 mM bα-Glycerolphosphate, 1 mM Na3VO4, 1 mg/ml Leupeptin, 1 mM PMSF on ice for 10 min. The protein concentration from the supernatant was determined by protein BCA assay (ThermoFisher). The protein extract was further processed for immunoblot analysis and probed for αSMA, collagen I, vimentin, phosphorylated Smad2, phosphorylated Smad3, phosphorylated GSK-3β and (β-catenin. All data were normalized to the level of GAPDH.

[2] = test system: primary porcine lens epithelial cells; experiment: αSMA expression in primary cultured porcine lens epithelial cells (pLEC)
Experimental: as §1
Cells were placed 24 hr before the treatment and fresh medium was replaced immediately before the treatment. The indicated concentrations of BSO, DMF, NAC, GSH-EE or TGFβ2 were added to fresh medium and incubated at various time intervals as indicated. After treatment time, the cells were harvested after three washes with ice-cold PBS and subjected to immunoblot or other assays as described below. […]
The cells, whole lens, lens capsule, and lens fibers were collected and lysed in lysis buffer containing 20 mM Tris pH 7.5, 1 mM EDTA, 1 mM EGTA, 150 mM NaCl, 1% Triton X-100, 2.5 mM sodium pyrophosphate, 1 mM bα-Glycerolphosphate, 1 mM Na3VO4, 1 mg/ml Leupeptin, 1 mM PMSF on ice for 10 min. The protein concentration from the supernatant was determined by protein BCA assay (ThermoFisher). […]

lens explant = experiment: Mouse lens explant culture (ex vivo PCO mimetic model), αSMA immunofluorescence; settings: 1 ng/ml TGFβ2, 48 hr stimulation
Experimental: The isolated intact lens was rinsed three times with HBSS and then cultured in 12-well-plates with serum-free Medium 199 (ThermoFisher) with 50 unit/ml penicillin streptomycin at 37° C. in 5% CO2 incubator, as described above. The lens explant was cultured following the same procedure as described by a previous report. Tamiya et al., Exp Eye Res 71, 591-597 (2000). In brief, the mouse lens was placed in an anterior-toposterior orientation with the anterior attached to the culture dish. The lens posterior capsule was torn/cut by the tip of extra-fine forceps and then peeled towards anterior capsule and pinned on the plastic culture dish. The lens fiber mass was removed thereafter. The explant was cultured in serum-free MEM medium supplied with 50 unit/ml penicillin streptomycin at 37° C. in 5% CO2 incubator as described above. Only healthy growing explants were used for the described study and any unhealthy looking explants, such as folded explants or those with cell detachment, were discarded.
as §2, with “For lens explant culture, 48 hr after explant culture, various stimulates were used in fresh serum-free medium for an additional 48 hr, and the explant was fixed with 10% formaldehyde for 10 min before immunofluorescence stain, as described below.” left out
Confocal microscope—All confocal images were collected by a Leica SP8 gSTED confocal microscope equipped with two 3 Hyd SP GaAsP detectors and the AOBS system lasers include a 405 nm, Argon (458, 476, 488, 496, 514 nm), a tunable white light (470 to 670 nm), and a 592 nm STED depletion laser. For proper comparison, each channel of fluorescence was adjusted to the highest sensitivity/intensity but without over saturation from samples with the strongest signal. […]

[3] = mouse lens ex vivo culture, 500 μM BSO, 48 hrs
[4] = HLE-B3 cells, 24 hr treatment with increasing concentration of BSO or DMF
[5] = HLE-B3 cells, 24 hr, 500 μM BSO or 25 μM DMF
[6] = lens capsule after ex vivo lens culture, BSO plus XAV939, 48 hr
[7] = HLE-B3 cells, XAV939 co-incubated with 500 μM BSO, 24 hr

For `CCCCS(=N)(=O)CCC(N)C(=O)O` (stereo not shown) [BSO, buthionine sulfoximine], the “phosphorylation at serine 9 of GSK-3β” value ([1]; lens capsules after whole lens ex vivo culture with BSO, 48 hr) was “significantly increased”, the “increase of vimentin expression compared to medium alone” value [1, 3] was about 2 fold and the “increase of αSMA expression compared to medium alone” value [1, 3] was “over 3.5 fold”. For the same molecule, the “phosphorylation status of Smad2 and Smad3” value (HLE-B3 cells; HLE-B3 cells with or without 500 μM BSO, 24 hr) was “no remarkable changes”, the “αSMA production, combination with TGFβ2” value (HLE-B3 cells; HLE-B3 cells, 500 μM BSO combined with 1 ng/ml TGFβ2, 24 hr) was “synergistic effect” and the “phosphorylation at serine 9 of GSK-3β” value (HLE-B3 cells; HLE-B3 cells, 500 μM BSO, 24 hr) was “significantly elevated; also recorded: significantly increased”. The “type I collagen expression” value (HLE-B3 cells; HLE-B3 cells, 500 μM BSO) was “Significantly increased; also recorded: significantly elevated”, the vimentin expression (HLE-B3 cells; HLE-B3 cells, 500 μM BSO) was “Significantly increased; also recorded: significantly elevated” and the αSMA expression (HLE-B3 cells; [4]) was “increased; also recorded: significantly upregulated”. For the same molecule, the αSMA expression (HLE-B3 cells; [5]) was “Significantly increased”, the αSMA expression ([2]; pLECs, increased concentration of BSO, 24 hr) was “increases” and the “concentration required to stimulate a similar fold of αSMA production” value ([2]; primary porcine lens epithelial cells, 24 hr, 100 times lower than in HLE-B3) was 5 µM. For the same molecule, the cell death ([2]; primary porcine lens epithelial cells, higher dosages of BSO (>100 μM)) was “massive cell death and detachment”.

For `COC(=O)/C=C/C(=O)OC` [DMF, dimethyl fumarate], the “type I collagen expression” value (HLE-B3 cells; HLE-B3 cells, 500 μM BSO) was “Significantly increased; also recorded: significantly elevated”, the vimentin expression (HLE-B3 cells; HLE-B3 cells, 500 μM BSO) was “Significantly increased; also recorded: significantly elevated” and the αSMA expression (HLE-B3 cells; [4]) was “increased; also recorded: significantly upregulated”. For the same molecule, the αSMA expression (HLE-B3 cells; [5]) was “Significantly increased”.

In the case of `Oc1nc(-c2ccc(C(F)(F)F)cc2)nc2c1CSCC2` [XAV939], the “αSMA production after BSO challenge” value [1, 6] is reported as “block”, the “β-catenin production after BSO challenge” value [1, 6] is reported as “block” and the “αSMA production after BSO challenge” value (HLE-B3 cells; [7]) is reported as “block”. The “β-catenin production after BSO challenge” value (HLE-B3 cells; [7]) was “block”.

B1: TGFβ2: Human TGFβ2, profibrogenic cytokine purchased from Sigma-Aldrich (protein, UniProt P61812 303-414, looked up)
Transforming growth factor …: ALDAAYCFRNVQDNCCLRPLYIDFKRDLGWKWIHEPKGYNANFCAGACPYLWSSDTQHSRVLSLYNTINPEASASPCCVSQDLEPLTILYYIGKTPKIEQLSNMIVKSCKCS
B1 was tested, and the “αSMA expression in lens explant compared to medium alone” value (lens explant) was “activated; also recorded: profound elevation”.
